Test: Approximate solubility at ambient temperature
Assay type: physicochemical
Description: Approximate solubility values were measured for the as-received material at ambient temperature. […] The approximate solubility values were considered in the design of form screen experiments.

With `CC(C)n1nccc1-c1ncccc1CO` [compound (3)] the approximate solubility (MTBE, toluene, water, and select solvent mixtures) was “Limited to intermediate solubility”, the approximate solubility (heptane) was “low solubility” and the approximate solubility (most of the organic solvents tested) was “high solubility”.

Reference: patent US20220324833A1, “PROCESS FOR PREPARATION OF 2-HYDROXY-6-((2-(1-ISOPROPYL-1H-PYRAZOL-5-YL)PYRIDIN-3-YL)METHOXY)BENZALDEHYDE” (Global Blood Therapeutics, Inc., priority 2020, published 2022)
